# Measured values: US8859574B2 (IRM LLC, priority 2008, dated 2014)
# Molecular target: T1, IGF-1R Ba/F3 (Homo sapiens, UniProt P08069)
# T1 construct: fused on or other part: TEL- (or BCR-) IGF-1R in Ba/F3: the kinase part holds the site
# Assay: Ba/F3 Cell Viability Inhibition Assay (IGF-1R Ba/F3)
# Assay type: cell-based, murine
# Settings: Tel-TK transformed Ba/F3 cells, 48 hours, Britelite luminescence
# Outline: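 IL-3-independent murine Ba/F3 cells transformed with a TEL/BCR-fused IGF-1R kinase were seeded at 3750 cells/well and exposed to serially diluted compound for 48 h at 37 °C. Viability was read by Britelite luminescence. IC50 is the concentration giving 50% of DMSO-control viability, from a logistic fit.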
# T1 sequence (P08069 999-1274 limits assumed): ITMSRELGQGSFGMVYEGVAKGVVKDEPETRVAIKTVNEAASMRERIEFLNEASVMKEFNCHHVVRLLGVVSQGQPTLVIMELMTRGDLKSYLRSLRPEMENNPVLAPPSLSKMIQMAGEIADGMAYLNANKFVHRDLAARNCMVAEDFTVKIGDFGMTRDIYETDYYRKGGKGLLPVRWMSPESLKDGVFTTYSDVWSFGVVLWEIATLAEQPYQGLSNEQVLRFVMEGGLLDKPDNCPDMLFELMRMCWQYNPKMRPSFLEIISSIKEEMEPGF
row,Compound,IC50 [nM]
1,"Cc1cc(Nc2nc(Nc3cc(C)c(C4CCN(C(=O)CN5CCOCC5)CC4)cc3F)ncc2Cl)n[nH]1 [Compound 97, 1-(4-(4-(5-chloro-4-(5-methyl-1H-pyrazol-3-ylamino)pyrimidin-2-ylamino)-5-fluoro-2-methylphenyl)piperidin-1-yl)-2-morpholinoethanone]",20
2,"Cc1cc(Nc2nc(Nc3cc(C)c(C4CCN(Cc5c(C)noc5C)CC4)cc3C)ncc2Cl)n[nH]1 [Compound 20, 5-chloro-N2-(4-(1-((3,5-dimethylisoxazol-4-yl)methyl)piperidin-4-yl)-2,5-dimethylphenyl)-N4-(5-methyl-1H-pyrazol-3-yl)pyrimidine-2,4-diamine]",11
3,"Cc1cc(Nc2nc(Nc3cc(C)c(C4CCN(C(=O)N5CCNC5=O)CC4)cc3C)ncc2Cl)n[nH]1 [Compound 113, 1-(4-(4-(5-chloro-4-(5-methyl-1H-pyrazol-3-ylamino)pyrimidin-2-ylamino)-2,5-dimethylphenyl)piperidine-1-carbonyl)imidazolidin-2-one]",13
